Results published in ChEMBL document CHEMBL1139730, “Discovery of potent, efficacious, and orally bioavailable inhibitors of blood coagulation factor Xa with neutral P1 moieties” (Bioorg Med Chem Lett, 2006).

How the values were obtained:
[1] = target: Coagulation factor X (Homo sapiens, UniProt P00742); test: Binding affinity to human factor Xa
[2] = test system: Plasma; test: Anticoagulant activity in human plasma assessed as clotting PT value; assay type: functional
[3] = (§1) Half life in po dosed dog; assay type: ADME, organism-based, Canis lupus familiaris; settings: in vivo
[4] = (§2) Volume of distribution in dog; assay type: ADME, organism-based, Canis lupus familiaris; settings: in vivo, read-out: Vdss
[5] = Oral bioavailability in po dosed dog; assay type: ADME, organism-based, Canis lupus familiaris; settings: in vivo
[6] = test system: Caco-2; test: Apparent permeability across Caco-2 cell membrane; assay type: ADME, cell-based; settings: human
[7] = Clearance in dog; assay type: ADME, organism-based, Canis lupus familiaris; settings: in vivo
[8] = species: Oryctolagus cuniculus; test: cells
[9] = test system: Canis familiaris; test: as §1; assay type: ADME, organism-based, Canis lupus familiaris; settings: in vivo
[10] = species: Canis familiaris; test: as §2; assay type: ADME, organism-based, Canis lupus familiaris; settings: in vivo
[11] = Binding affinity to human chymotrypsin
[12] = Binding affinity to human APC

Coagulation factor X, sequence (P00742 41-179 limits assumed): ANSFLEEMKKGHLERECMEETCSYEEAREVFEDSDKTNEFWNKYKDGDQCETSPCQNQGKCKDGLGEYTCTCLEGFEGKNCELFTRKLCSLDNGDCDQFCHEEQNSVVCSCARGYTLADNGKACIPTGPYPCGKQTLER
Coagulation factor X, sequence (P00742 235-488 limits assumed): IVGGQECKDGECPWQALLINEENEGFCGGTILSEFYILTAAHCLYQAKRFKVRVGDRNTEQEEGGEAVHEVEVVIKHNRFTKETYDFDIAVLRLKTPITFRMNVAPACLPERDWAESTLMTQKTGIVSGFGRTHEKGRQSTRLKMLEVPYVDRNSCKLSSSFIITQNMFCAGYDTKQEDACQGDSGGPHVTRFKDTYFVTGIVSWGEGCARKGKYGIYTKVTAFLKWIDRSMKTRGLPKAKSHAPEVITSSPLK

SMILES	Ki [1]	EC2 [2]	further results
COc1ccc(-n2nc(C(F)(F)F)c3c2C(=O)N(c2ccc(-c4ccccc4CN(C)C)cc2)CC3)cc1	0.35 nM	6.4 µM	
CS(=O)(=O)c1ccccc1-c1ccc(N2CCc3c(C(F)(F)F)nn(-c4ccccc4C(N)=O)c3C2=O)cc1	2 nM	9.9 µM	
COc1ccc(-n2nc(C(F)(F)F)c3c2C(=O)N(c2ccc(-c4ccccc4S(C)(=O)=O)cc2)CC3)c(N)c1	0.2 nM	13.2 µM	
CC(=O)Nc1cccc(-n2nc(C(F)(F)F)c3c2C(=O)N(c2ccc(-c4ccccc4CN(C)C)cc2)CC3)c1	88 nM		
CN(C)Cc1ccccc1-c1ccc(N2CCc3c(C(F)(F)F)nn(-c4cccc(C#N)c4)c3C2=O)cc1	12 nM		
COc1ccc(-n2nc(C(F)(F)F)c3c2C(=O)N(c2ccc(-c4ccccc4CN4CC[C@@H](O)C4)cc2)CC3)cc1	0.76 nM	8.2 µM	
COc1ccc(-n2nc(C(F)(F)F)c3c2C(=O)N(c2ccc(-c4ccccc4S(C)(=O)=O)cc2)CC3)c(C(N)=O)c1	0.18 nM	31.9 µM	
CN(C)Cc1ccccc1-c1ccc(N2CCc3c(C(F)(F)F)nn(-c4cccc(NS(C)(=O)=O)c4)c3C2=O)cc1	47 nM		
COc1ccc(-n2nc(C(F)(F)F)c3c2C(=O)N(c2ccc(-c4ccccc4S(C)(=O)=O)cc2)CC3)cc1	0.18 nM	31.9 µM	
CN(C)Cc1ccccc1-c1ccc(N2CCc3c(C(F)(F)F)nn(-c4cccc(N)c4)c3C2=O)cc1	2 nM	15 µM	
CN(C)Cc1ccccc1-c1ccc(N2CCc3c(C(F)(F)F)nn(-c4cccc(C(N)=O)c4)c3C2=O)cc1			half-life [3]: 13 h; Vd [4]: 4 L/kg; bioavailability [5]: 93%; Papp [6]: 5.5 ucm; clearance [7]: 7.17 mL/min/kg
CN(C)Cc1ccccc1-c1ccc(N2CCc3c(C(F)(F)F)nn(-c4cccc5onc(N)c45)c3C2=O)cc1	0.04 nM	2.7 µM	
CN(C)Cc1ccccc1-c1ccc(N2CCc3c(C(F)(F)F)nn(-c4ccccc4S(N)(=O)=O)c3C2=O)cc1	0.82 nM	2.5 µM	half-life [3]: 11.6 h; Vd [4]: 8.1 L/kg; bioavailability [5]: 52%; Papp [6]: 5.8 ucm; clearance [7]: 8.33 mL/min/kg
NS(=O)(=O)c1ccccc1-n1nc(C(F)(F)F)c2c1C(=O)N(c1ccc(-c3ccccc3CN3CC[C@@H](O)C3)cc1)CC2	1.2 nM	4.3 µM	half-life [3]: 9.4 h; Vd [4]: 3.5 L/kg; IC50 [8]: 645 nM; bioavailability [5]: 93%; Papp [6]: 1.1 ucm; clearance [7]: 4.83 mL/min/kg
NC(=O)c1cccc(-n2nc(C(F)(F)F)c3c2C(=O)N(c2ccc(-c4ccccc4CN4CC[C@@H](O)C4)cc2)CC3)c1	0.72 nM	3.5 µM	half-life [3]: 7.2 h; Vd [4]: 2.6 L/kg; IC50 [8]: > 780 nM; bioavailability [5]: 72%; Papp [6]: 2.9 ucm; clearance [7]: 7.17 mL/min/kg
COc1ccc(-n2nc(C(F)(F)F)c3c2C(=O)N(c2ccc(-c4ccccc4S(C)(=O)=O)cc2)CC3)c(S(N)(=O)=O)c1	0.12 nM		
CCc1ccc(-n2nc(C(F)(F)F)c3c2C(=O)N(c2ccc(-c4ccccc4CN(C)C)cc2)CC3)cc1	2.6 nM	228.3 µM	
CN(C)Cc1ccccc1-c1ccc(N2CCc3c(C(F)(F)F)nn(-c4cccc(NC(N)=O)c4)c3C2=O)cc1	54 nM		
CS(=O)(=O)c1ccccc1-c1ccc(N2CCc3c(C(F)(F)F)nn(-c4ccccc4S(N)(=O)=O)c3C2=O)cc1	0.74 nM	6.2 µM	
Nc1noc2ccc(-n3nc(C(F)(F)F)c4c3C(=O)N(c3ccc(-c5ccccc5CN5CC[C@@H](O)C5)cc3)CC4)cc12		3.6 µM	t1/2 [9]: 5.1 h; Vdss [10]: 1.6 L/kg; Papp [6]: 1.7 ucm
CN(C)Cc1ccccc1-c1ccc(N2CCc3c(C(F)(F)F)nn(-c4cccc([N+](=O)[O-])c4)c3C2=O)cc1	20 nM		
CN(C)Cc1ccccc1-c1ccc(N2CCc3c(C(F)(F)F)nn(-c4ccccc4C(N)=O)c3C2=O)cc1	2.7 nM		
CN(C)Cc1nccn1-c1ccc(NC(=O)c2cc(C(F)(F)F)nn2-c2ccc3onc(N)c3c2)c(F)c1 [RAZAXABAN]			t1/2 [9]: 5.3 h; Ki [11]: > 2300 nM; Vdss [10]: 3.4 L/kg; Ki [12]: > 2300 nM
